Here are results for one molecule from EP2145538A1 (priority 2008, dated 2010).

Values after ≈ are worked out from the molar mass of the structure shown. Values joined by “and” are separate entries in the source; they are usually repeats but may differ in a detail not shown here. Equal entries are not always repeated. “Also recorded” adds a separate entry of the source. Where two headings read alike, the source gives them in different places.

One series relates to Amylase aus Bacillus sp. Nature of the series: Amylase activity assay in microtiter plates (dye-labelled starch substrate), commercial enzyme. It counts as biochemical. To be noted: 0,5 mg/ml; result in words. The text has this:
(§1) Diese Methode basiert auf folgendem Prinzip:

Another series has as its target T1, Humanspeichelamylase (Homo sapiens, UniProt P0DUB6).
T1 construct: purchased Sigma
T1 sequence (P0DUB6 16-511): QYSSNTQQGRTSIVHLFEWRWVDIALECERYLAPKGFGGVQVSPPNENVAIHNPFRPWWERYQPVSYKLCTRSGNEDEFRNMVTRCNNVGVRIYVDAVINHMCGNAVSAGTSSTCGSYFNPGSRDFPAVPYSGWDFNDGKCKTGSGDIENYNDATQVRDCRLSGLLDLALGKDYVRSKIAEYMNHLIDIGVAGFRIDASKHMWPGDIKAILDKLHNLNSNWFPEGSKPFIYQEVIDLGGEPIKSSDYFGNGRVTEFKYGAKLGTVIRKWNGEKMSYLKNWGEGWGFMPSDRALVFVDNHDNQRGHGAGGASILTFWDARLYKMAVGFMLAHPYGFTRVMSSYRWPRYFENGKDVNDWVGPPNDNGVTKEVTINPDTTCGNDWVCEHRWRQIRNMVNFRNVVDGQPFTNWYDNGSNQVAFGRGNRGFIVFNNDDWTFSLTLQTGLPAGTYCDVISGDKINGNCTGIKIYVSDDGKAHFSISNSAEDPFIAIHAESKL
The description is as above. It counts as biochemical. Particulars: Humanamylase (500 U/mg, Sigma); read-out: Konzentration, bei der die Amylase vollständig / total gehemmt wird.
Description: as §1

The target in series [1] is Amylase aus Aspergillus oryzae (Aspergillus oryzae, UniProt P0C1B3). As to the kind of experiment: Amylase activity assay in microtiter plates (dye-labelled starch substrate), commercial enzymes. It counts as biochemical. To be noted: both Aspergillus amylases (35 U/mg Fluka, 200 U/mg Sigma); result in words.
Description: as §1

The test system of series [2] is Amylasen aus Kulturfiltrat (Strohextrakt) von in vitro angezogenem Fusarium graminearum. It counts as biochemical.
In series [3] the test system is Amylasen von mit F. graminearum infizierten Pflanzen. The format is biochemical, Fusarium graminearum.
For series [4], the system named is Fusarium graminearum. Nature of the series: microbe, parasite or virus in culture. The format is cell-based.
Series [5] concerns Fusarium graminearum. The format is in vivo. To be noted: for Fusarium Protein Equivalent (µg/g), Mittelwert: above-ground parts; for Fusarium Protein Equivalent (µg/g), Mittelwert / Fusarium Protein Equivalent (µg /g), Mean: 2 weeks after sowing; for Fusarium Protein Equivalent (µg /g), Mean: roots.
In series [6] the test system is Fusarium graminearum. It counts as in vivo.
Series [7] deals with Blumeria graminis f. sp. tritici. As to the kind of experiment: Powdery mildew rating on sprayed wheat plants (MOLL et al. 1996). It counts as in vivo. Particulars: 7 dpi; spray treatment at 3-leaf stage; AI-1 and AI-2 1 mg/ml, CI 100 µg/ml; Kontrolle 60. The text has this: Nach einer Sprühbehandlung der Weizenpflanzen im 3-Blatt-Stadium und anschließender Inokulation (nach Abtrocknen) mit Mehltau Blumeria graminis f. sp. tritici sind eindeutige Hemmeffekte zu erkennen (Figur 25-27). Eine Bonitur nach MOLL et al. (1996) ergab für den Amylase-Inhibitor AI-1 eine Befallsreduktion von 60% auf 7%, für den Amylase-Inhibitor AI-2 auf 1 % und für den Cellulase-Inhibitor CI auf 10% (Tabelle 3). Tab. 3: Bonitur des Mehltaubefalls (Blumeria graminis f. sp. tritici) nach MOLL et al. (1996) 7 dpi.

A further series relates to Weizenpflanzen. Particulars: in vivo.

For `CC1OC(OC2C(CO)OC(OC3C(CO)OC(O)C(O)C3O)C(O)C2O)C(O)C(O)C1NC1C=C(CO)C(O)C(O)C1O` (stereo not drawn) [AI-1, Acarbose], the “Hemmung der Enzymaktivität” value is reported as “ebenfalls gehemmt, jedoch durch diese Konzentration nicht total ausschaltet” in the series on Amylase aus Bacillus sp.; “nicht oder nur sehr schwach beeinflusst” in series [1]; “starke, wenn auch nicht vollständige Hemmung” in series [3] (result in words). The IC100 on Humanspeichelamylase turned out to be 250 µg/mL. In addition, the “Konzentration, bei der die Amylasen total gehemmt wurden” value in [2] is 0,06 mg/ml. Moreover, the “Amylase-Aktivität reduziert bis auf” value in series [2] (5 µg/ml, remaining activity) came to 28%. Besides, the “Amylasen gehemmt bis auf” value in [3] (0,5 mg/ml, not totally switched off) is recorded as 69,2%. In the series on Fusarium graminearum [4] (Fusarium graminearum, 336 h, read-out: Konzentration, bei der das Wachstum total gehemmt wird), the MIC came to 30 mg/L (≈ 46.5 µM). For the same molecule, the inhibition of growth at 15 µg/mL in the series on Fusarium graminearum [4] (Fusarium graminearum, read-out: Hemmung des Wachstums) was around 50%. In the series on Fusarium graminearum [4] (Saccharose as sole C source, up to 14 days, result in words), the “Einfluss auf das Wachstum von Fusarium graminearum” value was “keinen negativen Einfluss; also recorded: sogar gefördert”. Besides, the “Faktor effektiver als der Cellulase-Inhibitor gegenüber Stärke als Substrat” value with Fusarium graminearum [4] (total inhibition, 30 µg/ml versus 100 µg/ml) worked out at 3. Besides, the “Fusarium Protein Equivalent (µg/g), Mittelwert” value is recorded as 25,2 µg/g in the series with Fusarium graminearum [5] (infected with F.g. + inhibitor, infected control 341,44) and 2,2 µg/g with Fusarium graminearum [5] (not infected (K) + inhibitor). Besides, in the series on Fusarium graminearum [5] (folded filter, very high infection pressure, result in words), the “Aussehen der behandelten, infizierten Pflanzen (Fotos)” value is “fast normal aussehen”. Further, the “Effekt auf der Basis des Frischgewichtes” value with Fusarium graminearum [5] (infected wheat seedlings on folded filter, 2 weeks, result in words) was “starke befallreduzierende Effekt; also recorded: positive Effekt”. Also, in the series on Fusarium graminearum [5] (roots of infected wheat seedlings on folded filter, 2 weeks), the “Reduktion des Befalls der Wurzeln (ELISA)” value was 66% and 61%. Moreover, the “Fusarium Protein Equivalent (µg /g), Mean” value with Fusarium graminearum [5] (infected with F.g. + inhibitor, infected control 1261,2) is 554,8 µg /g; in the series on Fusarium graminearum [5] (not infected (K) + inhibitor) it was 6,3 µg /g. Also, the “Reduktion der Pilzmenge (ELISA)” value in the series on Fusarium graminearum [6] (Versuch 1, 4 weeks, seed dip treatment) was found to be 66%. Besides, in the series on Fusarium graminearum [6] (Versuch 1, 4 weeks, seed dip treatment, result in words), the “Hemmung des Pilzwachstums (ELISA)” value is reported as “vollständige Hemmung”. Moreover, in the series on Fusarium graminearum [6] (Versuch 2, 4 weeks, seed dip treatment), the “Hemmung des Pilzwachstums / Reduktion der Pilzmenge (ELISA)” value was 60% and 85%. Also, in the series with Fusarium graminearum [6] (soil substrate, greenhouse, 4 weeks, AI-1 1 mg /ml seed treatment, result in words), the “Blattfrischgewicht infizierter Pflanzen” value was “hebt diese Frischgewichtsdepression auf; also recorded: gleiche Frischgewicht wie die nicht infizierte Kontrolle”. In [7], the “Befall (%)” value is reported as 7%. Besides, the “Hemmung von Keimung und Pflanzenwachstum” value in the series on Weizenpflanzen is “weder der Amylase-Inhibitor AI-1 noch der amylasehemmende Wirkung zeigende Cellulose-Inhibitor die Keimung und das Pflanzenwachstum hemmten”.
